Experimental findings from ChEMBL document CHEMBL1135170, “4,4-Disubstituted cyclohexylamine NK(1) receptor antagonists II” (Bioorg Med Chem Lett, 2002) are described below.

Data set [1] concerns Gerbillinae. The experiment in a line: Compound was evaluated for the inhibition of GR 73632-induced foot tapping in gerbils after intravenous administration at 2 hour. It counts as functional. Particulars: read-out: ID50 (the source's name).
For data set [2], the system named is Gerbillinae. Description: Compound was evaluated for the inhibition of GR 73632-induced foot tapping in gerbils after intravenous administration at 24 hr at a concentration of 3 mg/kg. It counts as functional.
For another data set, the target named is Substance-P receptor (Homo sapiens, UniProt P25103). Description: Displacement of [125 I] -labelled substance P from the cloned Tachykinin receptor 1 expressed in CHO cells. It counts as cell-based.
Data set [3] addresses Voltage-gated inwardly rectifying potassium channel KCNH2 (Homo sapiens, UniProt Q12809). Description: Compound was evaluated for the displacement of labelled MK-499 from the cloned channel expressed in HEK cells (Ikr channel). It counts as cell-based, HEK293.
The test system of data set [4] is Gerbillinae. Description: Compound was evaluated for the inhibition of GR 73632-induced foot tapping in gerbils after intravenous administration at 24 hr. Particulars: read-out: ID50 (the source's name). It counts as functional.
The nature of data set [5]: Bioavailability in rat. It counts as ADME, organism-based. Particulars: in vivo.
Data set [6] relates to Gerbillinae. Description: Compound was evaluated for the inhibition of GR 73632-induced foot tapping in gerbils after intravenous administration. It counts as functional. The settings on record: read-out: ID50 (the source's name).
For data set [7], the system named is Gerbillinae. The experiment in a line: Compound was evaluated for the inhibition of GR 73632-induced foot tapping in gerbils after intravenous administration at 2 hour at a dose 3 mg/kg iv. It counts as functional.
In data set [8] the test system is Gerbillinae. The experiment in a line: Compound was evaluated for the inhibition of GR 73632-induced foot tapping in gerbils after intravenous administration at 0 (initial) hour. It counts as functional. Particulars: read-out: ID50 (the source's name).
In data set [9] the test system is Gerbillinae. The experiment in a line: Compound was evaluated for the inhibition of GR 73632-induced foot tapping in gerbils 2 hour after oral administration. It counts as functional. The settings on record: read-out: ID50 (the source's name).

Chain of Substance-P receptor (P25103 whole entry): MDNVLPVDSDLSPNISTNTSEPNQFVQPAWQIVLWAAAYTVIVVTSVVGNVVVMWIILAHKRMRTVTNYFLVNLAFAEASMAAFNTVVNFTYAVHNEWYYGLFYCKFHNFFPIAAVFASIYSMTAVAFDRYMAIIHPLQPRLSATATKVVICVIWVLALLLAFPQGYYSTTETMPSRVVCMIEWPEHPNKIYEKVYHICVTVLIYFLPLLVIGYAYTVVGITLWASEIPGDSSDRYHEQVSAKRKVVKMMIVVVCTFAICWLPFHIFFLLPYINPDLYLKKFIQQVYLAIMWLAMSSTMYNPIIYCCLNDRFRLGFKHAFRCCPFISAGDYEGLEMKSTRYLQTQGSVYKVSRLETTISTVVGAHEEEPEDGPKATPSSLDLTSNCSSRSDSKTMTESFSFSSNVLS
Chain of Voltage-gated inwardly rectifying potassium channel KCNH2 (Q12809 whole entry): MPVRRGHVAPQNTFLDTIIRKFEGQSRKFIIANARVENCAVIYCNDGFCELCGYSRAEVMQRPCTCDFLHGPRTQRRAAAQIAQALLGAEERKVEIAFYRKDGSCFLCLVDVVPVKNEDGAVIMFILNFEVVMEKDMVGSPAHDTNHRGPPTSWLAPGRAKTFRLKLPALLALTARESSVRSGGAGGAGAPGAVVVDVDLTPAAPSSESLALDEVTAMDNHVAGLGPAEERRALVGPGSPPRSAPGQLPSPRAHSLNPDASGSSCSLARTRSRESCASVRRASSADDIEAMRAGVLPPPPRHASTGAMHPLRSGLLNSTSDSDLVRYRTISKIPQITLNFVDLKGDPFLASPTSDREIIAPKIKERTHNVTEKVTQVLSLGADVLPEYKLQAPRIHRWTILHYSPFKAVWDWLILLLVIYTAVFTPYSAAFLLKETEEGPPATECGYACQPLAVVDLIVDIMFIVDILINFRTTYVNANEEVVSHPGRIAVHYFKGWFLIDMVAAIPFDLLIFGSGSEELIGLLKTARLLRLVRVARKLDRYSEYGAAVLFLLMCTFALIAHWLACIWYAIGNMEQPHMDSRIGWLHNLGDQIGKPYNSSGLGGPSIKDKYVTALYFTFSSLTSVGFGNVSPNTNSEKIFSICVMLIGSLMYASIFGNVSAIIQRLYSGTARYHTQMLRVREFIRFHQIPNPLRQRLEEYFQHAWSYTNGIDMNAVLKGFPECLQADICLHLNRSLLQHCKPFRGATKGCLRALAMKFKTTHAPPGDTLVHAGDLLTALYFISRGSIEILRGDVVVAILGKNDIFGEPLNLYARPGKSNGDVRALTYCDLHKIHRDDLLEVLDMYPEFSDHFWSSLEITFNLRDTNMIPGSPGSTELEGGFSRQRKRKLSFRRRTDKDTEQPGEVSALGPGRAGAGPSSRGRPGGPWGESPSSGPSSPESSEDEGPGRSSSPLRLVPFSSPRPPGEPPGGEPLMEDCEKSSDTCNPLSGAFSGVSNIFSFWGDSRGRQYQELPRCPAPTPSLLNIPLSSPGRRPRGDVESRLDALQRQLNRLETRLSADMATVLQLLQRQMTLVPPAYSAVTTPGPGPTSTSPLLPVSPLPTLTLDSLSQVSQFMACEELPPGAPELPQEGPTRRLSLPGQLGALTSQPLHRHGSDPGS

Turning to `CC(C(=O)NC1(c2ccccc2)CCC(N2CCC3(CC2)CCC(C)(C)O3)CC1)c1cc(C(F)(F)F)cc(C(F)(F)F)c1` (configuration not stated), the ED50 in the data set with Gerbillinae [1] was 1 mg/kg. Besides, the inhibition in vivo (as a rule, the share of the control response that was lost under treatment) at 3 mg/kg in the data set on Gerbillinae [2] was determined as 72%. On Substance-P receptor, the IC50 (in general, the midpoint of a concentration-inhibition curve) came to 0.35 nM. The affinity in [3] corresponds to a Ki of 950 nM.
`CC(C(=O)N[C@]1(c2ccccc2)CC[C@H](N(C)C)CC1)c1cc(C(F)(F)F)cc(C(F)(F)F)c1` (some centres not stated): at Substance-P receptor, the IC50 is 22 nM. This lies in the double-digit nanomolar range.
Turning to `CC(C(=O)NC1(c2ccccc2)CCC(N2CCC3(CCC(=O)O3)CC2)CC1)c1cc(C(F)(F)F)cc(C(F)(F)F)c1` (configuration not stated), on Substance-P receptor, the IC50 was determined as 2.1 nM. In data set [3], the affinity corresponds to a Ki of 400 nM.
As for `CC(C(=O)N[C@]1(c2ccccc2)CC[C@H](N2CCCCC2)CC1)c1cc(C(F)(F)F)cc(C(F)(F)F)c1` (some centres not stated), the half-inhibitory concentration (IC50) at Substance-P receptor amounted to 2.4 nM.
`CC(C(=O)N[C@]1(c2ccccc2)CC[C@@H](N2CCC3(CC2)OCCO3)CC1)c1cc(C(F)(F)F)cc(C(F)(F)F)c1` (some centres not stated): in the data set on Gerbillinae [4], the ED50 is 5.4 mg/kg. Besides, the IC50 on Substance-P receptor was determined as 0.3 nM.
Compound `CC(C(=O)NC1(c2ccccc2)CCC(N2CCC3(CCOC3=O)CC2)CC1)c1cc(C(F)(F)F)cc(C(F)(F)F)c1` (configuration not stated) displayed an IC50 on Substance-P receptor of 0.42 nM. Further, the Ki (usually the dissociation constant of the complex between target and ligand, obtained from inhibition or displacement) in [3] was determined as 490 nM.
For `CC1CCN([C@H]2CC[C@](NC(=O)C(C)c3cc(C(F)(F)F)cc(C(F)(F)F)c3)(c3ccccc3)CC2)CC1` (some centres not stated) the same measures were 1.2 nM and 460 nM.
The matching figures for `CC(C(=O)N[C@]1(c2ccccc2)CC[C@@H](N2CCC(O)CC2)CC1)c1cc(C(F)(F)F)cc(C(F)(F)F)c1` (some centres not stated): 0.85 nM and 1400 nM.
In the case of `CC(C(=O)N[C@]1(c2ccccc2)CC[C@@H](N2CCC(=O)CC2)CC1)c1cc(C(F)(F)F)cc(C(F)(F)F)c1` (some centres not stated), the IC50 on Substance-P receptor was 1.6 nM.
With `O=C(NCc1cc(C(F)(F)F)cc(C(F)(F)F)c1)[C@]1(c2ccccc2)CC[C@@H](N2CCC(c3ccc(F)cc3)CC2)CC1`, the bioavailability (as a rule, dose-corrected exposure relative to a reference, in per cent) in data set [5] came to 70%. The ED50 in the data set on Gerbillinae [6] came to 1.9 mg/kg. For the same compound, in the data set on Gerbillinae [7], the inhibition in vivo at 3 mg/kg came to 15%. Further, the IC50 on Substance-P receptor is 0.34 nM.
Take `CC(C(=O)NC1(c2ccccc2)CCC(N2CCC3(CCCO3)CC2)CC1)c1cc(C(F)(F)F)cc(C(F)(F)F)c1` (configuration not stated): the figures for the ED50 with Gerbillinae [1] and with Gerbillinae [4] were 0.7 mg/kg and 3.1 mg/kg, respectively. On Substance-P receptor, this compound registered an IC50 of 0.22 nM. In data set [3], this compound displayed a Ki of 730 nM.
Regarding `CC(C(=O)N[C@]1(c2ccccc2)CC[C@@H](N2CCN(C(C)C)CC2)CC1)c1cc(C(F)(F)F)cc(C(F)(F)F)c1` (some centres not stated), on Substance-P receptor, the IC50 amounted to 0.39 nM.
Consider `CC(C(=O)N[C@]1(c2ccccc2)CC[C@@H](N2CCC(c3ccc(F)cc3)CC2)CC1)c1cc(C(F)(F)F)cc(C(F)(F)F)c1` (some centres not stated), for which the ED50 with Gerbillinae [8] came to 1.7 mg/kg; in the data set with Gerbillinae [1] it was 0.6 mg/kg; in the data set with Gerbillinae [4], 1.8 mg/kg. For the same compound, the affinity in data set [3] corresponds to a Ki of 43 nM.
On Substance-P receptor, `CC(C(=O)NC1(c2ccccc2)CCC(N2CCC(O)(Cc3ccccc3)CC2)CC1)c1cc(C(F)(F)F)cc(C(F)(F)F)c1` (configuration not stated) displayed an IC50 of 0.33 nM. The same compound yielded a Ki in data set [3] of 260 nM.
Turning to `CC(C(=O)NC1(c2ccccc2)CCC(N2CCC3(CCOC3)CC2)CC1)c1cc(C(F)(F)F)cc(C(F)(F)F)c1` (configuration not stated), the ED50 stood at 1.4 mg/kg with Gerbillinae [8], 1.1 mg/kg in the data set with Gerbillinae [1], 1.6 mg/kg in the data set on Gerbillinae [4] and 2.2 mg/kg in the data set on Gerbillinae [9]. The IC50 at Substance-P receptor was 0.34 nM.
